Reference: US8431613B2, “Memory fixation accelerator” (Research Foundation ITSUU Laboratory, priority 2004, dated 2013)
Marks after values point to notes of the source that are not given here.

System: Slc:Wistar male rats given scopolamine
Assay: Passive avoidance reaction (shuttle type avoidance test box) in scopolamine-treated rats
Format: in vivo, rat
Details: for latent time compared with the control group: Example 2, scopolamine 0.25 or 0.5 mg/kg, drug treatment from the 2nd day
Experimental: 6-Week old Slc:Wistar male rats were used for the experiment after preliminary breeding including one week of quarantine. The animals were individually bred under an environment at a temperature of 22±3° C. and a humidity of 50±20% with illumination of 12 hours (8:00 to 20:00) for both the preliminary breeding and experimental periods, and the animals were given pellets (Labo MR Stock, Nihon Nosan Kogyo K.K.) and tap water ad libitum. The animals were divided into groups according to body weights as an index (10 animals/group), and trials for acquisition and reproduction of memory were performed. Each trial was performed by using a shuttle type avoidance test box. […] Each animal was put into the light room, time until the animal moved to the dark room (latent time) was measured up to 5 minutes, and when the rat moved to the darkroom, the partition was shut, and shock was given by electrification.
Each animal was subcutaneously given 0.5 mg/kg of scopolamine 30 minutes before the trial, and this procedure was continued for seven days. Scopolamine, which is an anticholinergic agent, is known to block the muscarinic acetylcholine receptor in the striate body and inhibit acquisition of new memory (Folia Pharmacol. Jpn., 97, pp. 351-359, 1991). From the third day, the test substance (Am80: 4-[(5,6,7,8-tetrahydro-5,5,8,8-tetramethyl-2-naphthalenyl)carbamoyl]benzoic acid, 10 mg/kg/day) was orally given 3 hours before the scopolamine treatment. With numerical values obtained, average and standard deviation were calculated for each group, and a homoscedasticity test was performed by F-test between the control group (no Am80 treatment) and Am80-treated group. When homoscedasticity was observed, presence or absence of significant difference was determined by Student's t-test, and when non-homoscedasticity was observed, presence or absence of significant difference was determined by Aspin-Welch's t-test.
A test was performed in the same manner as that of Example 1, except that scopolamine was given at a dose of 0.25 mg/kg or 0.5 mg/kg, and 2 mg/kg, 5 mg/kg or 12.5 mg/kg of Am80, 30 mg/kg of Tac101 (4-[(3,5-bis-trimethylsilylphenyl)-carboxamido]benzoic acid), and 10 mg/kg of HX630 (4-[2,3-(2,5-dimethyl-2,5-hexano)dibenzo[b,f][1,4]thiazepin-11-yl]benzoic acid) were given. Combinatory use of Am80 (5 mg/kg) and HX630 (10 mg/kg) was also similarly examined. Drug treatment was performed from the 2nd day.
In the same manner as that of Example 2, scopolamine was given at a dose of 0.25 mg/kg, and 10 mg/kg of 4-[5-(4,7-dimethylbenzofuran-2-yl)pyrrol-2-yl]benzoic acid (IT-K-1001) was orally given.

CC1(C)CCC(C)(C)c2cc3c(cc21)Sc1ccccc1N=C3c1ccc(C(=O)O)cc1 [HX630, 4-[2,3-(2,5-dimethyl-2,5-hexano)dibenzo[b,f][1,4]thiazepin-11-yl]benzoic acid]
latent time compared with the control group: gradually extended | Reaction latency (HX630 10 mg/kg/day from 2nd day, SCP 0.5 mg/kg/day, lapsed day 1): 18 s | Reaction latency (HX630 10 mg/kg/day from 2nd day, SCP 0.5 mg/kg/day, lapsed day 2): 21 s | Reaction latency (HX630 10 mg/kg/day from 2nd day, SCP 0.5 mg/kg/day, lapsed day 3): 30 s | Reaction latency (HX630 10 mg/kg/day from 2nd day, SCP 0.5 mg/kg/day, lapsed day 4): 33 s | Reaction latency (HX630 10 mg/kg/day from 2nd day, SCP 0.5 mg/kg/day, lapsed day 5): 51 s

CC1(C)CCC(C)(C)c2cc(NC(=O)c3ccc(C(=O)O)cc3)ccc21 [Am80, 4-[(5,6,7,8-tetrahydro-5,5,8,8-tetramethyl-2-naphthalenyl)carbamoyl]benzoic acid]
Reaction latency (Am80 2 mg/kg/day from 2nd day, SCP 0.5 mg/kg/day, lapsed day 1): 14 s | Reaction latency (Am80 2 mg/kg/day from 2nd day, SCP 0.5 mg/kg/day, lapsed day 2): 9 s | Reaction latency (Am80 2 mg/kg/day from 2nd day, SCP 0.5 mg/kg/day, lapsed day 3): 23 s | Reaction latency (Am80 2 mg/kg/day from 2nd day, SCP 0.5 mg/kg/day, lapsed day 4): 24 s | Reaction latency (Am80 2 mg/kg/day from 2nd day, SCP 0.5 mg/kg/day, lapsed day 5): 38 s | Reaction latency (Am80 5 mg/kg/day from 2nd day, SCP 0.25 mg/kg/day, lapsed day 1): 14 s | Reaction latency (Am80 5 mg/kg/day from 2nd day, SCP 0.25 mg/kg/day, lapsed day 2): 15 s | Reaction latency (Am80 5 mg/kg/day from 2nd day, SCP 0.25 mg/kg/day, lapsed day 3): 53 s | Reaction latency (Am80 5 mg/kg/day from 2nd day, SCP 0.25 mg/kg/day, lapsed day 4): 80 s | Reaction latency (Am80 5 mg/kg/day from 2nd day, SCP 0.25 mg/kg/day, lapsed day 5): 155 s | Reaction latency (Am80 5 mg/kg/day from 2nd day, SCP 0.5 mg/kg/day, lapsed day 1): 19 s | Reaction latency (Am80 5 mg/kg/day from 2nd day, SCP 0.5 mg/kg/day, lapsed day 2): 18 s | Reaction latency (Am80 5 mg/kg/day from 2nd day, SCP 0.5 mg/kg/day, lapsed day 3): 38 s | Reaction latency (Am80 5 mg/kg/day from 2nd day, SCP 0.5 mg/kg/day, lapsed day 4): 52 s | Reaction latency (Am80 5 mg/kg/day from 2nd day, SCP 0.5 mg/kg/day, lapsed day 5): 71 s | Reaction latency (Am80 10 mg/kg/day oral from 3rd day, scopolamine 0.5 mg/kg s.c., lapsed day 1 (before treatment)): 15 s | Reaction latency (Am80 10 mg/kg/day oral from 3rd day, scopolamine 0.5 mg/kg s.c., lapsed day 2 (before treatment)): 14 s | Reaction latency (Am80 10 mg/kg/day oral from 3rd day, scopolamine 0.5 mg/kg s.c., lapsed day 3): 26 s | Reaction latency (Am80 10 mg/kg/day oral from 3rd day, scopolamine 0.5 mg/kg s.c., lapsed day 4): 88 s | Reaction latency (second) (Am80 10 mg/kg/day oral from 3rd day, scopolamine 0.5 mg/kg s.c., lapsed day 5): 149** second | Reaction latency (second) (Am80 10 mg/kg/day oral from 3rd day, scopolamine 0.5 mg/kg s.c., lapsed day 6): 163** second | Reaction latency (second) (Am80 10 mg/kg/day oral from 3rd day, scopolamine 0.5 mg/kg s.c., lapsed day 7): 162** second | Reaction latency (Am80 12.5 mg/kg/day from 2nd day, SCP 0.5 mg/kg/day, lapsed day 1): 15 s | Reaction latency (Am80 12.5 mg/kg/day from 2nd day, SCP 0.5 mg/kg/day, lapsed day 2): 24 s | Reaction latency (Am80 12.5 mg/kg/day from 2nd day, SCP 0.5 mg/kg/day, lapsed day 3): 43 s | Reaction latency (Am80 12.5 mg/kg/day from 2nd day, SCP 0.5 mg/kg/day, lapsed day 4): 74 s | Reaction latency (Am80 12.5 mg/kg/day from 2nd day, SCP 0.5 mg/kg/day, lapsed day 5): 133 s | latent time, course from the start of the treatment (Example 1, Am80 10 mg/kg/day oral, scopolamine 0.5 mg/kg s.c., significant differences vs control from the 5th day): gradually extended | latent time compared with the control group: gradually extended

C[Si](C)(C)c1cc(C(=O)Nc2ccc(C(=O)O)cc2)cc([Si](C)(C)C)c1 [Tac101, 4-[(3,5-bis-trimethylsilylphenyl)-carboxamido]benzoic acid]
latent time compared with the control group: gradually extended | Reaction latency (Tac101 30 mg/kg/day from 2nd day, SCP 0.5 mg/kg/day, lapsed day 1): 19 s | Reaction latency (Tac101 30 mg/kg/day from 2nd day, SCP 0.5 mg/kg/day, lapsed day 2): 21 s | Reaction latency (Tac101 30 mg/kg/day from 2nd day, SCP 0.5 mg/kg/day, lapsed day 3): 47 s | Reaction latency (Tac101 30 mg/kg/day from 2nd day, SCP 0.5 mg/kg/day, lapsed day 4): 69 s | Reaction latency (Tac101 30 mg/kg/day from 2nd day, SCP 0.5 mg/kg/day, lapsed day 5): 107 s

Cc1ccc(C)c2oc(-c3ccc(-c4ccc(C(=O)O)cc4)[nH]3)cc12 [IT-K-1001, 4-[5-(4,7-dimethylbenzofuran-2-yl)pyrrol-2-yl]benzoic acid]
effect on the action of scopolamine (reaction latency) (Example 3, 10 mg/kg oral, scopolamine 0.25 mg/kg): markedly inhibited the effect of scopolamine | Reaction latency (IT-K-1001 10 mg/kg/day oral, SCP 0.25 mg/kg/day, lapsed day 1): 22 s | Reaction latency (IT-K-1001 10 mg/kg/day oral, SCP 0.25 mg/kg/day, lapsed day 2): 11 s | Reaction latency (IT-K-1001 10 mg/kg/day oral, SCP 0.25 mg/kg/day, lapsed day 3): 106 s | Reaction latency (IT-K-1001 10 mg/kg/day oral, SCP 0.25 mg/kg/day, lapsed day 4): 115 s | Reaction latency (IT-K-1001 10 mg/kg/day oral, SCP 0.25 mg/kg/day, lapsed day 5): 206 s | Reaction latency (IT-K-1001 10 mg/kg/day oral, SCP 0.25 mg/kg/day, lapsed day 6): 291 s | Reaction latency (IT-K-1001 10 mg/kg/day oral, SCP 0.25 mg/kg/day, lapsed day 7): 300 s | Reaction latency (IT-K-1001 10 mg/kg/day oral, SCP 0.25 mg/kg/day, lapsed day 8): 281 s
